Reference: patent US6696484B2, “Method and compositions for regulation of 5-alpha reductase activity” (University of Chicago Office of Technology and Intellectual …, priority 1997, dated 2004)
“And” between values parts separate entries of the source, which are not always exact repeats. Identical values can stand only once. Like-named read-outs stand apart in the source and are kept apart here.

Columns and labels:
hamster flank organ [1] = test: Testosterone-stimulated growth of the pigmented macules of hamster flank organs; assay type: in vivo, Syrian golden hamsters; conditions: for Inhibition (percent decrease in macule area vs androgen-treated macules) / Pigmented macule area / Pigmented macule area, androgen alone (control): 18 days; for Pigmented macule area / Pigmented macule area, androgen alone (control): mean±SEM; for Pigmented macule area, androgen alone (control): 0.5 μg testosterone alone topically daily;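 on all read-outs here: prepubertal Syrian golden hamsters castrated at 4 weeks, ethanol vehicle on one flank organ, macule long and short axes gauged by caliper 1 day after final dose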
hamster flank organ [2] = test: DHT-stimulated growth of the pigmented macules of hamster flank organs; assay type: in vivo, Syrian golden hamsters; conditions: 0.5 μg DHT + 1 mg compound topically daily, 18 days; for Pigmented macule area: mean±SEM
Description: Prepubertal male Syrian golden hamsters, castrated at 4 weeks of age, were obtained from Harlan Sprague-Dawley Co. (Madison, Wis.). Bilateral orchiectomy was performed under anesthesia. The hamsters were housed individually in plastic cages and had free access to Purina rodent chow and water, and were maintained on a 12-h light/12-h dark cycle. Hamsters were used 1-2 weeks after castration and were divided into groups of 4-6 or 9-11 animals. Hair on the lower back of each animal was shaved weekly with an electric hair clipper to expose the flank organs. A treatment solution (5 μl with ethanol as vehicle) was applied topically to the flank organ once a day using a Pipetteman and a polypropylene disposable tip. The treatment solution contained either (a) ethanol alone, (b) an androgen (testosterone or DHT), (c) a test compound, or (d) a combination of an androgen and a test compound. For each hamster, one flank organ was treated while the other organ was not treated. The surface of the flank organ was wiped with an alcohol pad to remove residual compound before each treatment. At the end of each experiment (18 days), animals were killed by CO2 asphyxiation or an intraperitoneal injection of […]. Flank organs from both the treated and untreated sides were examined 1 day after the last treatment by the methods described below. The body weight of each animal was recorded before and after treatment. Experiments were repeated at least twice to assure reproducibility. The “Guide for the care and use of laboratory animals” (NIH publication no. 85-28, revised 1988) and the regulations of the U.S. Department of Agriculture were followed throughout the experiments.
In this study, the growth of the flank organ was determined by measuring the length of the long axis and the short axis of the pigmented spot (pigmented macule) with a caliper with a digital display (Digimatic; Mitutoyo Corporation, Japan). The surface area (in millimeters squared) of the spot was calculated as the product of the long axis and the short axis (Gomez and Frost 1975). The areas of the pigmented spots after treatment with ethanol alone or with test compound (in ethanol) alone were less than 10% of the areas of the pigmented spots after treatment with testosterone alone. These values were deducted from the experimental values and are compared in Tables 8-10. For each experiment, the means and standard error of the means (SEM) of the areas of the untreated and treated macules were computed separately for each treatment group. Within each experiment, an overall F-test (one way ANOVA) was used to test the null hypothesis that the mean sizes of the treated macules were the same in all groups, and Dunnett's multiple range test was used to examine differences between the treatment groups (i.e., green tea catechin+androgen, fatty acid+androgen, EGC derivative+androgen, or fatty acid derivative+androgen) and the control group (androgen treatment only). The Mann-Whitney test was used to examine differences between DHT-treated and the DHT and EGCG-treated groups. P-values <0.05 were taken as indicating statistical significance in all tests (Hochberg and Tamhane 1987).
Each group comprised four to six castrated male hamsters. At the end of the treatment period, the areas of the pigmented macules were determined and are presented as means±SEM in Table 8.
Each group comprised four to six castrated male hamsters. At the end of the treatment period, the areas of the pigmented macules were determined and are expressed as means±SEM as shown in Table 10.

5α-reductase [3] = test: In vitro enzyme assay of 5α-reductase referred to in the discussion; assay type: biochemical; conditions: Hiipakka and Liao, unpublished results
5α-reductase [4] = test: Cell-free 5α-reductase assay, isozyme not given; assay type: biochemical, human; conditions: isozyme not stated
5α-reductase [5] = test: Whole-cell 5α-reductase assay, isozyme not given; assay type: cell-based, human; conditions: isozyme not stated
From the text: Intact cells containing 5α-reductase, their microsomes, or nuclear preparations can also be used to screen 5α-reductase inhibitors.

5α-reductase [6] = conditions: Liao and Hiipakka 1995, cited from earlier work; for activity against 5α-reductase, in vitro enzyme assay: at 200 μM; for IC50: read-out: IC50, 5α-reductase, in vitro enzyme assay
[7] = biological target: T1, type 2 human 5α-reductase (Homo sapiens, UniProt P31213); test: Cell-free enzymatic assay of 5α-reductase (testosterone to DHT), type 2; assay type: biochemical; design: expressed in transfected cells; host or cells: rat 1A cells infected with pMV7 retrovirus and selected with G418; microsomes for the cell-free assay
T1 sequence (P31213 1-254): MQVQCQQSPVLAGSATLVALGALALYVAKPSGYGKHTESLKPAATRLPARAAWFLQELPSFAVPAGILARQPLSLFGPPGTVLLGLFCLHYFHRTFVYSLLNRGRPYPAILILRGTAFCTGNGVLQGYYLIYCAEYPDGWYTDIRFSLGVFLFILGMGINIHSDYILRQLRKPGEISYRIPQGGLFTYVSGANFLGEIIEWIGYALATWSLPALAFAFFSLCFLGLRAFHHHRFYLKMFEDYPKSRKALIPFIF

[8] = Stability (half-life, oxidation or hydrolysis) in culture medium, buffers and solutions; assay type: physicochemical
From the text: These green tea catechins had little inhibitory activity against 5α-reductase in whole cells. The lack of activity in whole cells may be due to an inability of these catechins to cross the cell membrane or to enzymatic or non-enzymatic changes in the structure of these catechins in assays using whole-cell cultures.
Active 5α-reductase inhibitors shown in Tables 1-7 are polyphenols or their derivatives and are easily oxidized or hydrolyzed within several hours to several days, especially in the presence of air or oxygen and at a pH above 7.0. […] More than 80% of the oxidation of hydrolysis can be prevented by the addition of an inorganic acid, such as hydrochloric acid, sulfuric acid, or phosphoric acid, or an organic acid, such as citric acid or acetic acid.

[9] = biological target: T2, type 1 human 5α-reductase (Homo sapiens, UniProt P18405); test: Cell-free enzymatic assay of 5α-reductase (testosterone to DHT), type 1
T2 sequence (P18405 1-259): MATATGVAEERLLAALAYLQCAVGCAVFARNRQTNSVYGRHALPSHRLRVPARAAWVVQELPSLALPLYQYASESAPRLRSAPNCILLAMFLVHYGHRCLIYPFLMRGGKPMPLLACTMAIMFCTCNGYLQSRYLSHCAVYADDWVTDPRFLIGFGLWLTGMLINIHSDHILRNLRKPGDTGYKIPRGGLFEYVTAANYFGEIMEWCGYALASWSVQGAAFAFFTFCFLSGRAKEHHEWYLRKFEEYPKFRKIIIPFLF

LNCaP 104-R2 tumors = test: Growth of LNCaP 104-R2 tumors in castrated male nude mice; assay type: in vivo, BALB/c athymic (nude) mice; conditions: finasteride (2.5 mg) pellets at 7th week in mice with TP since 4th week, from 84±15 (SE) mm^3
LNCaP 104-S tumors = test: Growth of LNCaP 104-S tumors in nude mice; assay type: in vivo, BALB/c athymic (nude) mice; conditions: finasteride treatment, normal nude mice, within 4 weeks
MCF-7 tumors = test: Growth of MCF-7 tumors in female nude mice; assay type: in vivo, BALB/c athymic (nude) mice
[10] = biological target: T3, 5α-reductase type 2 isozyme (Homo sapiens, UniProt P31213); conditions: cited from earlier work
T3 sequence (P31213 1-254): T1 sequence (P31213 1-254)

[11] = biological target: T1, type 2 human 5α-reductase; test: Whole-cell assay of 5α-reductase, type 2; assay type: cell-based; design: expressed in transfected cells; host or cells: rat 1A cells infected with pMV7 retrovirus and selected with G418; intact cells for the whole-cell assay; conditions: read-out: percent inhibition of 5α-reductase activity, whole-cell assay, Type 2; 100 μM compound
[12] = biological target: T4, 5α-reductase type 1 isozyme (Homo sapiens, UniProt P18405); conditions: read-out: Km for testosterone, type 1 isozyme; background statement; cited from earlier work
T4 sequence (P18405 1-259): T2 sequence (P18405 1-259)

[13] = 0.5 μg testosterone + 1 mg compound topically daily
[14] = 0.5 μg testosterone + 1 mg compound topically daily, castrated male hamsters
[15] = 0.5 μg testosterone + 2 mg compound topically daily
[16] = cell-free assay, double-reciprocal plots

O=C1c2ccccc2C(=O)c2c1ccc(O)c2O [Alizarin]
Inhibition (percent decrease in macule area vs androgen-treated macules) (hamster flank organ [1]; [13]): 87% | Pigmented macule area (hamster flank organ [1]; [14]): 2.40 ± 0.47 mm^2 | Inhibition (percent decrease in macule area vs androgen-treated macules) (hamster flank organ [2]): 27% | Pigmented macule area (hamster flank organ [2]): 10.00 ± 0.43 mm^2 | IC50 (5α-reductase [3]): 5 to 10 µM

Oc1ccccc1O [Catechol, 1,2-dihydroxybenzene]
inhibitory activity in the cell-free assay (5α-reductase [4]): weak inhibitory activity | inhibitory activity in the whole-cell assay (5α-reductase [5]): weak inhibitory activity

Oc1cc(O)c2c(c1)O[C@H](c1ccc(O)c(O)c1)[C@H](O)C2 [EC, epicatechin]
Inhibition (percent decrease in macule area vs androgen-treated macules) (hamster flank organ [1]; [13]): 37% | Pigmented macule area (hamster flank organ [1]; [14]): 8.67 ± 1.08 mm^2 | activity against 5α-reductase, in vitro enzyme assay (5α-reductase [6]): not active

O=C(O[C@@H]1Cc2c(O)cc(O)cc2O[C@@H]1c1ccc(O)c(O)c1)c1cc(O)c(O)c(O)c1 [ECG, epicatechin gallate]
Inhibition (percent decrease in macule area vs androgen-treated macules) (hamster flank organ [1]; [13]): 59% | Pigmented macule area (hamster flank organ [1]; [14]): 5.75 ± 0.57 mm^2 | IC50 (5α-reductase [6]): 10 to 20 µM | IC50 [7]: 69 µM

Oc1cc(O)c2c(c1)O[C@H](c1cc(O)c(O)c(O)c1)[C@H](O)C2 [EGC, epigallocatechin]
Pigmented macule area (hamster flank organ [1]; [14]): 10.75 ± 0.87 mm^2 and 5.50 ± 0.65 mm^2 | activity against 5α-reductase, in vitro enzyme assay (5α-reductase [6]): not active

O=C(O[C@@H]1Cc2c(O)cc(O)cc2O[C@@H]1c1cc(O)c(O)c(O)c1)c1cc(O)c(O)c(O)c1 [EGCG, epigallocatechin gallate]
half-life in culture medium ([8]; culture medium used for whole-cell assays (pH 7.5), mean±SEM, N=3): 9.5 ± 0.5 min | difference in stability, phosphate buffer vs culture medium ([8]; pH 7.0 vs pH 7.5): 8 fold | half-life in phosphate buffered saline ([8]; pH 7.5): 21.2 ± 2.0 min | half-life in phosphate buffer ([8]; phosphate buffer used for cell-free assays (pH 7.0), mean±SEM, N=3): 74.7 ± 6.4 min | Inhibition (percent decrease in macule area vs androgen-treated macules) (hamster flank organ [1]; [13]): 40% and 64% | Pigmented macule area (hamster flank organ [1]; [14]): 8.25 ± 1.43 mm^2 and 6.25 ± 0.82 mm^2 | Inhibition (percent decrease in macule area vs androgen-treated macules) (hamster flank organ [1]; [15]): 60% | Pigmented macule area (hamster flank organ [1]; [15]): 5.62 ± 0.75 mm^2 | Inhibition (percent decrease in macule area vs androgen-treated macules) (hamster flank organ [2]): 97% | Pigmented macule area (hamster flank organ [2]): 0.50 ± 0.26 mm^2 | IC50 (5α-reductase [6]): 10 to 20 µM | reversibility of inhibition after pelleting and resuspending microsomes ([9]; 100 μM EGCG): could not be reversed | mode of inhibition with respect to the substrate NADPH [9, 16]: competitive inhibitor | mode of inhibition with respect to the substrate testosterone [9, 16]: non-competitive inhibitor

CC(C)(C)NC(=O)[C@H]1CC[C@H]2[C@@H]3CC[C@H]4NC(=O)C=C[C@]4(C)[C@H]3CC[C@]12C [Finasteride]
LNCaP 104-R2 tumor size within 4 weeks after finasteride implantation (LNCaP 104-R2 tumors): 593±144 mm^3 | reduction of LNCaP 104-S tumor size (LNCaP 104-S tumors): 45% | effect on growth of MCF-7 tumors (MCF-7 tumors): did not affect | affinity for isozyme 2 relative to isozyme 1 ([10]; competitive inhibitor, Russell and Wilson, 1994): 30 fold

CCCCC/C=C\C/C=C\C/C=C\CCCCC(=O)OC [Methyl ester of γ-linolenic acid]
IC50 (5α-reductase [4]): > 100 µM | IC50 (5α-reductase [5]): > 100 µM | inhibitory activity in the whole-cell assay (5α-reductase [5]): little activity

Oc1cccc(O)c1O [Pyrogallol, 1,2,3-trihydroxybenzene]
inhibitory activity in the cell-free assay (5α-reductase [4]): weak inhibitory activity | inhibitory activity in the whole-cell assay (5α-reductase [5]): weak inhibitory activity | inhibition at 100 µM [11]: 15%

C[C@]12CC[C@H]3[C@@H](CCC4=CC(=O)CC[C@@]43C)[C@@H]1CC[C@@H]2O [T, testosterone, reference compound]
Pigmented macule area, androgen alone (control) (hamster flank organ [1]): 13.83 ± 1.43 mm^2 and 17.40 ± 1.93 mm^2 and 18.65 ± 0.69 mm^2 | Pigmented macule area, androgen alone (control) (hamster flank organ [1]; listed as testosterone): 15-20 mm^2 | stimulation of flank organ growth relative to the maximum stimulation (hamster flank organ [1]; 0.5 μg testosterone per flank organ per day): 50-70% | Km [12]: > 1 µM | Km ([10]; read-out: Km for testosterone, type 2 isozyme, background statement): < 0.01 µM

CCCCC/C=C\C/C=C\C/C=C\CCCCC(=O)O[C@H]1CC[C@@]2(C)C(=CC[C@H]3[C@@H]4CC[C@H]([C@H](C)CCCC(C)C)[C@@]4(C)CC[C@@H]32)C1 [cholesterol ester of γ-linolenic acid]
IC50 (5α-reductase [4]): > 100 µM | IC50 (5α-reductase [5]): > 100 µM | inhibitory activity in the whole-cell assay (5α-reductase [5]): little activity

O=C(O)c1cc(O)c(O)c(O)c1 [gallic acid, 3,4,5-trihydroxybenzoic acid]
inhibitory activity in the cell-free assay (5α-reductase [4]): weak inhibitory activity | inhibitory activity in the whole-cell assay (5α-reductase [5]): weak inhibitory activity
